US20230210110A1, “METHOD FOR INDUCING ENVIRONMENTAL STRESS TOLERANCE IN PLANTS” (AJINOMOTO CO., INC., priority 2020, published 2023)
“Also recorded” adds a separate entry of the source.

Assays:
[1] = system: RD29A, RD29B, MAPKKK18, ABF3F and SLAC1 genes; assay: Induction of expression of environmental stress tolerance (ABA-responsive) genes, real-time PCR, relative to GAPDH; format: in vivo, Arabidopsis thaliana
Procedure: (§1) Four to six young Arabidopsis thaliana plants grown on a 50% concentration MS (Murashige-Skoog) agar medium were transferred to a 6-well plate containing a 50% concentration MS (Murashige-Skoog) liquid medium and pre-cultured for 16 hours, then added with a treatment solution containing each amino acid alone or a treatment solution containing a combination of each amino acid and ABA, and left for 6 hours. Then, RNA was then isolated from the plants with a nucleic acid purification kit (Promega, Maxwell (registered trademark) 16 LEV simplyRNA Tissue Kit). Then, cDNA was synthesized with a cDNA synthesis reagent for real-time PCR (Toyobo, ReverTra Ace (registered trademark) qPCR RT Master Mix).
MAPKKK18 is a gene encoding a kinase (MAPKKK18, MITOGEN-ACTIVATED PROTEIN KINASE KINASE KINASE 18) that functions in the ABA signaling pathway of Arabidopsis thaliana (Zelicourt A. et al., Trends in Plant Science 21: (2016)). RD29A and RD29B are genes encoding hydrophilic proteins (RESPONSIVE TO DESICCATION 29A, RESPONSIVE TO DESICCATION 29B) that are responsive for ABA and environmental stress such as drought stress and salinity stress and considered to be involved in stress tolerance and senescence suppression (Yang S. D. et al., Plant Cell 6: 2155-2168 (2011)). ABF3 is a gene encoding a transcription factor (ABA-responsive element-binding protein) that regulates expression of ABA-responsive genes (Yoshida T. et al., Plant, cell and Environment 38: 35-49 (2015)). SLAC1 is a gene encoding an anion channel involved in stomatal closure (Yoshida et al., J Plant Res (2016) 129:39-49). GAPDH is a glyceraldehyde-3-phosphate dehydrogenase gene and was selected as an internal standard.
The expression levels of the genes were calculated as relative expression levels to the GAPDH gene. Twenty amino acids were divided into 10 each, and the gene expression inducing activity when combined with ABA was evaluated in two tests (n=2).
(§2) The expression levels of the respective genes were calculated as relative expression levels to the GAPDH gene in the same manner as in Example 1.
Separately, Arabidopsis thaliana was treated with a combination of 0.1 mM, 0.25 mM, 1 mM, 2.5 mM, 10 mM, or 25 mM of Lys and 0.25 μM of ABA in the same manner as in Example 1, and expression of MAPKKK18, RD29A, and RD29B genes after 6 hours of treatment was analyzed (n=3). The expression levels of the respective genes were calculated as relative expression levels to the GAPDH gene in the same manner as in Example 1. […]
as §2, §2

tomato (variety Caramba) = assay: Yield of tomato under drought stress, greenhouse pot test; format: in vivo; details: for Yield (g/plot accumulation): drought stress 50% water, four foliar sprays, ABA is (S)-(+)-abscisic acid, Lys is L-Lys hydrochloride, control with drought 924.2; for % to T2: yield relative to control with drought stress (T2)
Procedure: A pot test of tomato was carried out in a greenhouse in Valencia, Spain. The test was carried out using 20 pots (=20 replications) of tomatoes grown on pots of 0.3 m^2 size. The variety of tomato used was Caramba. Abscisic acid used was (S)-(+)-abscisic acid and Lys used was L-Lys hydrochloride. Foliar spray treatments were carried out four times. The first treatment was carried out at time 61 on the BBCH scale (BBCH61: when the first flower of the first inflorescence bloomed), the second treatment was carried out 21 days after the first treatment, the third treatment was carried out 14 days after the second treatment, and the fourth treatment was carried out 14 days after the third treatment. A harvest survey was carried out at time 82 on the BBCH scale (BBCH82: when 20% of the fruit were fully ripe and colored).

[2] = system: RD29A, RD29B, MAPKKK18, ABF3F and SLAC1 genes; assay: Induction of expression of environmental stress tolerance (ABA-responsive) genes, real-time PCR, relative to GAPDH; format: in vivo, Arabidopsis thaliana; details: amino acid alone or combination with ABA, 6 hours, n=3
Arabidopsis thaliana [3] = assay: Drought stress tolerance: dehydration amount during cultivation without water supply; format: in vivo; details: spray, control approximately 77%
Procedure: A test for verifying an effect of conferring drought stress tolerance by a combination of Lys and ABA was carried out (n=4). For Arabidopsis thaliana grown on rockwool under short-day conditions for 35 days, the weight of the rockwool and the whole plant was measured, to determine the initial weight. Arabidopsis thaliana was spray treated with 2.5 mM of Lys and 5 μM or 50 μM of ABA alone or in combination (first spray treatment). As a control treatment group, Arabidopsis thaliana was spray treated with DMSO (first spray treatment). After the first spray treatment, cultivation was continued for 7 days without water supply. During cultivation, a second spray treatment was carried out 4 days after the first spray treatment. The weight of the rockwool and the whole plant was measured 4 and 7 days after the first spray treatment, to determine the post-cultivation weight. The post-cultivation weight was subtracted from the initial weight, to determine the dehydration amount during cultivation.

Arabidopsis thaliana [4] = assay: Drought stress tolerance: survival rate after drought and re-watering; format: in vivo; details: 12 days after spray, water supplied again at 9 days; 50 μM ABA (2.5 mM Lys in the combination); Mock 8.5%
Procedure: A test for verifying an effect of conferring drought stress tolerance by a combination of Lys and ABA was carried out. Arabidopsis thaliana grown on rockwool under short-day conditions for 35 days was spray treated with 50 μM of ABA alone or with 2.5 mM of Lys and 50 μM of ABA in combination. As a control treatment group (Mock), Arabidopsis thaliana was spray treated with DMSO. After the spray treatment, cultivation was continued without water supply, to subject Arabidopsis thaliana to drought stress. Water was again supplied to Arabidopsis thaliana 9 days after the spray treatment, and the survival rate was measured 12 days after the spray treatment (n=94-96).

Wheat (Norin 61) = assay: Drought stress tolerance of wheat: water loss and survival rate; format: in vivo; details: 10 μM ABA (2.5 mM Lys in the combination)
Procedure: A test for verifying an effect of conferring drought stress tolerance by a combination of Lys and ABA in wheat was carried out. Wheat (Norin 61) grown on rockwool under long-day conditions for 13 days was spray treated with 10 μM of ABA alone or with 2.5 mM or 10 mM of Lys and 10 μM of ABA in combination. As a control treatment group (Mock), the wheat was spray treated with DMSO. After the spray treatment, cultivation was continued without water supply, to subject wheat to drought stress. During cultivation, the water loss from the rockwool was measured. Water was again supplied to the wheat 21 days after the spray treatment, and the survival rate was measured 23 days after the spray treatment (n=24).

RD29B and MAPKKK18 = assay: Effect of Lys derivatives and nitrogen-containing compounds on induction of environmental stress tolerance genes by ABA (activity level); format: in vivo, Arabidopsis thaliana; details: total of induction activities of RD29B and MAPKKK18 with 1 mM compound and 0.25 μM ABA, relative to ABA alone taken as 1; >1 enhanced, 1 no effect, <1 suppressed
Procedure: as §1
GAPDH is a glyceraldehyde-3-phosphate dehydrogenase gene and was selected as an internal standard.
Lys or each Lys derivative is used for treatment at 1 mM and ABA at 0.25 μM.

[5] = MAPKKK18, RD29A, RD29B, 0.05-2.5 mM Lys with 0.25 μM ABA, 6 hours, upper panel of FIG. 3

Question: NCCCC[C@H](N)C(=O)O [No. 1, lysine] was tested. Which “activity of synergistically enhancing the effect of the natural-type ABA” value ([1]; Lys in combination with natural-type ABA ((S)-(+)-ABA)) did it give?
Answer: synergistically enhance the effect of the natural-type ABA

Question: What about the “Lys concentrations at which Lys concentration-dependent improvement in expression inducing activity was observed” value [1, 5] of the same molecule?
Answer: ≥ 0.25 mM

Question: And the “Lys concentrations at which no improvement in expression inducing activity was observed” value [1, 5]?
Answer: ≤ 0.1 mM

Question: What about the “Lys concentration-dependent improvement in expression inducing activity” value ([1]; MAPKKK18, RD29A, RD29B, 0.1-25 mM Lys with 0.25 μM ABA, 6 hours, lower panel of FIG. 3) of the same molecule?
Answer: at least up to Lys concentrations of 10 mM or 25 mM

Question: What about the “effect of Lys on inducing expression of environmental stress tolerance genes by ABA” value ([1]; MAPKKK18 and RD29B, 1 mM Lys in combination with 0.25 μM ABA, 6 hours) of the same molecule?
Answer: enhanced

Question: What about the “effect of Lys on inducing expression of environmental stress tolerance genes by ABA agonist” value ([1]; MAPKKK18 and RD29B, 1 mM Lys in combination with opabactin (OP), 6 hours) of the same molecule?
Answer: enhanced

Question: And the “effect of Lys on inducing expression of environmental stress tolerance genes by ABA agonist” value ([1]; MAPKKK18 and RD29B, 1 mM Lys in combination with quinabactin (QB), 6 hours)?
Answer: enhanced

Question: And the “activity of synergistically enhancing the effect of ABA” value ([1]; RD29B expression, amino acid in combination with ABA, listed as Lys)?
Answer: synergistically enhance the effect of ABA; also recorded: significantly high activity

Question: What about the “effect of enhancing the ABA activity by Lys” value ([1]; wild-type strain, 0.5 mM Lys with 0.25 μM ABA, 6 hours) of the same molecule?
Answer: observed

Question: What about the “Yield (g/plot accumulation)” value (tomato (variety Caramba); 10 μM ABA and/or 2.5 mM Lys) of the same molecule?
Answer: 1089.3 g/plot

Question: And the “Yield (g/plot accumulation)” value (tomato (variety Caramba); 100 μM ABA and/or 25 mM Lys)?
Answer: 1114.6 g/plot

Question: And the “% to T2” value (tomato (variety Caramba); 10 μM ABA and/or 2.5 mM Lys)?
Answer: 117.9%

Question: And the “% to T2” value (tomato (variety Caramba); 100 μM ABA and/or 25 mM Lys)?
Answer: 120.6%

Question: What about the “activity to induce expression of the environmental stress tolerance gene RD29B” value [2] of the same molecule?
Answer: No activity

Question: Which results are given for CC1=CC(=O)CC(C)(C)C1(O)/C=C/C(C)=C\C(=O)O (racemic) [ABA, abscisic acid, reference compound]?
Answer: Expression induction of RD29A and RD29B genes by ABA ([1]; wild-type strain (WT, Col-0), 0.25 μM ABA, 6 hours): observed; dehydration amount on the 4th day (Arabidopsis thaliana [3]; 5 μM ABA (2.5 mM Lys in the combination)): approximately 80.1%; dehydration amount on the 4th day (Arabidopsis thaliana [3]; 50 μM ABA (2.5 mM Lys in the combination)): approximately 57%; survival rate (Arabidopsis thaliana [4]): 13.5%; survival rate (Wheat (Norin 61); 23 days after spray, water supplied again at 21 days, Mock 9.4%): 6.7%; dehydration amount on the 5th day (Wheat (Norin 61); spray, control approximately 84%): approximately 61%; dehydration amount on the 6th day (Wheat (Norin 61); spray, control approximately 91%): approximately 82%; Yield (g/plot accumulation) (tomato (variety Caramba); 10 μM ABA and/or 2.5 mM Lys): 1008.1 g/plot; Yield (g/plot accumulation) (tomato (variety Caramba); 100 μM ABA and/or 25 mM Lys): 1081.6 g/plot; % to T2 (tomato (variety Caramba); 10 μM ABA and/or 2.5 mM Lys): 109.1%; % to T2 (tomato (variety Caramba); 100 μM ABA and/or 25 mM Lys): 117.0%; Activity level (RD29B and MAPKKK18): 1
